The values that follow come from patent US12391686B2, “Compounds and uses thereof” (Foghorn Therapeutics Inc., priority 2019, dated 2025).

The assay deals with T1, Nanoluciferase-BRD9 fusion protein (3×FLAG-NLuc-BRD9) in SYO-1 cells (Homo sapiens, UniProt Q9H8M2).
T1 construct: expressed in transfected cells; host or cells: SYO-1
T1 sequence (Q9H8M2 1-597): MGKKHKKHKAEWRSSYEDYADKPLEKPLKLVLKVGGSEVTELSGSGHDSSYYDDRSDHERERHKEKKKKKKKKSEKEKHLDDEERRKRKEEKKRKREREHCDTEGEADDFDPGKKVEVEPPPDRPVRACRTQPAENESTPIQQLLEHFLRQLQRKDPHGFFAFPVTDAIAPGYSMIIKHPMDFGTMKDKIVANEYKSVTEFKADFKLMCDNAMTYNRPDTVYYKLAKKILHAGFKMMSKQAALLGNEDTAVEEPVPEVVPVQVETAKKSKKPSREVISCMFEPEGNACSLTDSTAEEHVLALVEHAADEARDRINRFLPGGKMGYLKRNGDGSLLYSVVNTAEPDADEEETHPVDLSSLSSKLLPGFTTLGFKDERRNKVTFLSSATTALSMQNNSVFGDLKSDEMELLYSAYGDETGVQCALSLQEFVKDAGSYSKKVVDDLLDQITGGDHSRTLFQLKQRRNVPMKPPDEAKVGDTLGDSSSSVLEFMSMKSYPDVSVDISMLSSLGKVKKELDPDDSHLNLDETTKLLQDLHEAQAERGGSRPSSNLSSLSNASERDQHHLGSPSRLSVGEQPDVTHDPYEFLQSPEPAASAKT
Put plainly: SYO1 BRD9 NanoLuc Degradation Assay. The assay is classed as cell-based. Particulars: Table 6C; SYO-1 cells expressing 3×FLAG-NLuc-BRD9, 6 hours incubation, 1 μM top dose; read-out: SYO1 BRD9-NanoLuc degradation IC50. In outline:
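Stable 3×FLAG-NLuc-BRD9 SYO-1 line, 8000 cells/well, dosed day 1 with 10-point 3-fold dilutions (1 μM final top, duplicates) for 6 h. NanoLuc bioluminescence read with Nano-Glo; % inhibition relative to DMSO (high) and 1 μM reference BRD9 degrader (low) controls.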

SMILES strings stand for the structures.

Consider `[2H]C1CC(N2Cc3cc(N4CCC(CCN5CCN(Cc6c(OC)cc(-c7cn(C)c(=O)c8cnc(N9CCC9)cc78)cc6OC)CC5)CC4)ccc3C2=O)C(=O)NC1=O` (stereo not shown) [Compound D245], for which the DC50 is less than 10 nM.
As to `[2H]C([2H])([2H])n1cc(-c2cc(OC)c(CN3CC(Oc4ccc5c(c4)C(=O)N(C4CCC(=O)NC4=O)C5)C3)c(OC)c2)c2cc(C3CC3)ncc2c1=O` (stereo not shown) [Compound D247], the DC50 is less than 10 nM.
Take `COc1cc(-c2cn(C)c(=O)c3cnc(N4CC(F)(F)C4)cc23)cc(OC)c1CN1CCN(CCC2CCN(c3ccc4c(c3)CN(C3CCC(=O)NC3=O)C4=O)CC2)CC1` (stereo not shown) [Compound D248]: the DC50 was less than 10 nM.
`COc1cc(-c2cn(C)c(=O)c3cnc(N(C)C)cc23)cc(OC)c1CN1CC2(CC(N3CCN(C4CCC(=O)NC4=O)C(=O)C3)C2)C1` (stereo not shown) [Compound D249]: the DC50 lay within 100 to 1000 nM.
Consider `COc1cc(-c2cn(C)c(=O)c3cnc(N(C)C)cc23)cc(OC)c1CN1CCC(N2CCN(C3CCC(=O)NC3=O)C(=O)C2)C1` (stereo not shown) [Compound D250], for which the DC50 fell in the range of 100 to 1000 nM.
`COc1cc(-c2cn(C)c(=O)c3cnc(N(C)C)cc23)cc(OC)c1CN1CCC2(CC1)CC(N1CCN(C3CCC(=O)NC3=O)C(=O)C1)C2` (stereo not shown) [Compound D251]: the DC50 is no less than 1000 nM.
`COc1cc(-c2cn(C)c(=O)c3cnc(N(C)C)cc23)cc(OC)c1CN1CC2(CCC(N3CCN(C4CCC(=O)NC4=O)C(=O)C3)CC2)C1` (stereo not shown) [Compound D252]: the DC50 lay within 10 to 100 nM.
In the case of `COc1cc(-c2cn(C)c(=O)c3cnc(N(C)C)cc23)cc(OC)c1CN1CCC(N2CCN(C3CCC(=O)NC3=O)C(=O)C2)CC1` (stereo not shown) [Compound D253], the DC50 was no less than 1000 nM.
For `[2H]C([2H])([2H])n1cc(-c2cc(OC)c(CN3[C@H](C)CN(c4ccc5c(c4)C(=O)N(C4CCC(=O)NC4=O)C5)C[C@H]3C)c(OC)c2)c2cc(OC)ncc2c1=O` (stereo partly shown) [Compound D254] the value was less than 10 nM.
For `COc1cc(-c2cn(C)c(=O)c3cnc(N(C)C)cc23)cc(OC)c1CN1CCN(c2ccc3c(c2)C(=O)N(C2CCC(=O)NC2=O)C3)CC1(C)C` (stereo not shown) [Compound D255], the DC50 was less than 10 nM.
Turning to `COc1cc(-c2cn(C)c(=O)c3cnc(N4CCC4)cc23)cc(OC)c1CN1CC(N(C)c2ccc3c(c2)C(=O)N(C2CCC(=O)NC2=O)C3)C1` (stereo not shown) [Compound D256], the DC50 was less than 10 nM.
For `COc1cc(-c2cn(C)c(=O)c3cnc(N(C)C)cc23)cc(OC)c1C1CN(c2ccc3c(c2)C(=O)N(C2CCC(=O)NC2=O)C3)C1` (stereo not shown) [Compound D257], the DC50 is less than 10 nM.
In the case of `COc1cc2c(-c3cc(OC)c(CN4CCN(CCC5CCN(c6ccc7c(c6)C(=O)N(C6CCC(=O)NC6=O)C7)CC5)CC45CCC5)c(OC)c3)cn(C)c(=O)c2cn1` (stereo not shown) [Compound D258], the DC50 is less than 10 nM.
`COc1cc(-c2cn(C)c(=O)c3cnc(N4CCC4)cc23)cc(OC)c1CN1CC(CN2CCC3(CC2)CN(c2ccc4c(c2)C(=O)N(C2CCC(=O)N(C)C2=O)C4)C3)C1` (stereo not shown) [Compound D259]: the DC50 was no less than 1000 nM.
Turning to `COc1cc2c(-c3cc(OC)c(CN4CCN(c5ccc6c(c5)C(=O)N(C5CCC(=O)NC5=O)C6)CC4(C)C)c(OC)c3)cn(C)c(=O)c2cn1` (stereo not shown) [Compound D260], the DC50 was less than 10 nM.
For `COc1cc(-c2cn(C)c(=O)c3cnc(N4CC(F)(F)C4)cc23)cc(OC)c1CN1CCC(CN2CCC3(CC2)CN(c2ccc4c(c2)C(=O)N(C2CCC(=O)N(C)C2=O)C4)C3)CC1` (stereo not shown) [Compound D261] the value was no less than 1000 nM; for `CN(C)c1cc2c(-c3ccc(N(C)C4CCN(c5ccc6c(c5)C(=O)N(C5CCC(=O)NC5=O)C6)CC4)cc3)cn(C)c(=O)c2cn1` (stereo not shown) [Compound D262], less than 10 nM.
With `COc1cc(-c2cn(C)c(=O)c3cnc(C4CC4)cc23)cc(OC)c1CN1CC(C#Cc2ccc3c(c2)C(=O)N(C2CCC(=O)NC2=O)C3)C1` (stereo not shown) [Compound D263], the DC50 was less than 10 nM.
For `CCc1cc(-c2cn(C)c(=O)c3cnc(N4CCC4)cc23)cc(OC)c1CN1CCC2(CC1)CN(c1ccc3c(c1)C(=O)N(C1CCC(=O)NC1=O)C3)C2` (stereo not shown) [Compound D264] the value was less than 10 nM; for `COc1cc(-c2cn(C)c(=O)c3cnc(N(C)C)cc23)cc(OC)c1C1CCN(c2ccc3c(c2)C(=O)N(C2CCC(=O)NC2=O)C3)CC1` (stereo not shown) [Compound D265], less than 10 nM.
Take `COc1cc(-c2cn(C)c(=O)c3cnc(N(C)C)cc23)cc(OC)c1CN1CC(C#Cc2ccc3c(c2)C(=O)N(C2CCC(=O)NC2=O)C3)C1` (stereo not shown) [Compound D267]: the DC50 is less than 10 nM.
On to `COc1cc(-c2cn(C)c(=O)c3cnc(N(C)C)cc23)cc(OC)c1CN1CC(N(C)c2ccc3c(c2)C(=O)N(C2CCC(=O)NC2=O)C3=O)C1` (stereo not shown) [Compound D268], for which the DC50 was less than 10 nM.
As for `COc1cc(-c2cn(C)c(=O)c3cnc(C4CC4)cc23)cc(OC)c1CN1CCC(C#Cc2ccc3c(c2)C(=O)N(C2CCC(=O)NC2=O)C3)CC1` (stereo not shown) [Compound D269], the figure is less than 10 nM; as for `COc1cc(-c2cn(C)c(=O)c3cnc(N(C)C)cc23)cc(OC)c1CN1CCN(c2cnn(C3CCC(=O)NC3=O)c2)CC1` (stereo not shown) [Compound D270], 10 to 100 nM.
`COc1cc(-c2cn(C)c(=O)c3cnc(C4CC4)cc23)cc(OC)c1CN1CC(C#Cc2ccc3c(c2)CN(C2CCC(=O)NC2=O)C3=O)C1` (stereo not shown) [Compound D271]: the DC50 was less than 10 nM.
Consider `COc1cc(-c2cn(C)c(=O)c3cnc(C4CC4)cc23)cc(OC)c1CN1CCC(C#Cc2ccc3c(c2)C(=O)N(C2CCC(=O)NC2=O)C3=O)CC1` (stereo not shown) [Compound D272], for which the DC50 was less than 10 nM.
As to `COc1cc(-c2cn(C)c(=O)c3cnc(N(C)C)cc23)cc(OC)c1CN1CCC(C#Cc2ccc3c(c2)C(=O)N(C2CCC(=O)NC2=O)C3=O)CC1` (stereo not shown) [Compound D273], the DC50 was less than 10 nM.
Turning to `COc1cc(-c2cn(C)c(=O)c3cnc(N(C)C)cc23)cc(OC)c1-c1ccc2c(c1)C(=O)N(C1CCC(=O)NC1=O)C2` (stereo not shown) [Compound D274], the DC50 is less than 10 nM.
On to `COc1cc(-c2cn(C)c(=O)c3cnc(C4CC4)cc23)cc(OC)c1CN1CC(C#Cc2ccc3c(c2)C(=O)N(C2CCC(=O)NC2=O)C3=O)C1` (stereo not shown) [Compound D275], for which the DC50 is less than 10 nM.
With `[2H]C([2H])([2H])n1cc(-c2cc(OC)c(CN3[C@H](C)CN(c4ccc5c(c4)C(=O)N(C4CCC(=O)NC4=O)C5)C[C@H]3C)c(OC)c2)c2cc(N(C)C)ncc2c1=O` (stereo partly shown) [Compound D276], the DC50 was less than 10 nM.
For the compound `COc1cc(-c2cn(C)c(=O)c3cnc(N(C)C)cc23)cc(OC)c1CN(C)c1ccc2c(c1)CN(C1CCC(=O)NC1=O)C2=O` (stereo not shown) [Compound D277], the DC50 is less than 10 nM.
In the case of `COc1cc(-c2cn(C)c(=O)c3cnc(N4CC(F)(F)C4)cc23)cc(OC)c1CN1CCN(c2ccc3c(c2)C(=O)N(C2CCC(=O)NC2=O)C3)CC1(C)C` (stereo not shown) [Compound D278], the DC50 was less than 10 nM.
As for `COc1cc(N(C)C2CCN(c3ccc4c(c3)C(=O)N(C3CCC(=O)NC3=O)C4)CC2)c(OC)cc1-c1cn(C)c(=O)c2cnc(N(C)C)cc12` (stereo not shown) [Compound D279], the DC50 is less than 10 nM.
As for `COc1cc(-c2cn(C)c(=O)c3cnc(N(C)C)cc23)cc(OC)c1CC1CCN(c2ccc3c(c2)C(=O)N(C2CCC(=O)NC2=O)C3)CC1` (stereo not shown) [Compound D280], the figure is less than 10 nM.
Turning to `COc1cc2c(-c3cc(OC)c(CN4[C@H](C)CN(c5ccc6c(c5)C(=O)N(C5CCC(=O)NC5=O)C6)C[C@H]4C)c(OC)c3)cn(C)c(=O)c2cn1` (stereo partly shown) [Compound D281], the DC50 is less than 10 nM.
`COc1cc2c(-c3cc(OC)c(CN4CCN(c5cccc(OC6CCC(=O)NC6=O)c5)CC4)c(OC)c3)cn(C)c(=O)c2cn1` (stereo not shown) [Compound D282]: the DC50 was 10 to 100 nM.
Consider `COc1cc(-c2nn(C)c(=O)c3cnc(N4CCC4)cc23)cc(OC)c1CN1CCC(CN2CCC3(CC2)CC(Oc2ccc4c(c2)C(=O)N(C2CCC(=O)NC2=O)C4)C3)CC1` (stereo not shown) [Compound D283], for which the DC50 was in the range of 100 to 1000 nM.
For `COc1cc(-c2cn(C)c(=O)c3ccc(N(C)C)cc23)cc(OC)c1CN1CC(CN2CCC3(CC2)CN(c2ccc4c(c2)C(=O)N(C2CCC(=O)NC2=O)C4)C3)C1` (stereo not shown) [Compound D285] the value was no less than 1000 nM.
As for `COc1cc(-c2cn(C)c(=O)c3cnc(N4CCC4)nc23)cc(OC)c1CN1CCC(CN2CCC3(CC2)CC(Oc2ccc4c(c2)C(=O)N(C2CCC(=O)NC2=O)C4)C3)CC1` (stereo not shown) [Compound D286], the figure is less than 10 nM; as for `COc1cc(-c2cn(C)c(=O)c3cc(F)ccc23)cc(OC)c1CN1CCC(CN2CCC3(CC2)CC(Oc2ccc4c(c2)C(=O)N(C2CCC(=O)NC2=O)C4)C3)CC1` (stereo not shown) [Compound D287], less than 10 nM.
As for `COc1cc2c(-c3cc(OC)c(CN4CCC(c5ccc6c(c5)C(=O)N(C5CCC(=O)NC5=O)C6)CC4)c(OC)c3)cn(C)c(=O)c2cn1` (stereo not shown) [Compound D288], the figure is less than 10 nM; as for `COc1cc2c(-c3cc(OC)c(CN4CCC(CN5CCC6(CC5)CN(c5ccc7c(c5)C(=O)N(C5CCC(=O)NC5=O)C7)C6)CC4)c(OC)c3)cn(C)c(=O)c2cn1` (stereo not shown) [Compound D289], less than 10 nM.
For `COc1cc(-c2cn(C)c(=O)c3cnc(N4CCC4)cc23)cc(OC)c1CN1CCN(c2ccc3c(c2)C(=O)N(C2CCC(=O)NC2=O)C3)CC1(C)C` (stereo not shown) [Compound D290], the DC50 is less than 10 nM.
